Molecular target: T1, human TLR7 (Homo sapiens, UniProt Q9NYK1)
T1 construct: host or cells: HEK293 (HEK-Blue hTLR7)
T1 sequence (Q9NYK1 27-1049): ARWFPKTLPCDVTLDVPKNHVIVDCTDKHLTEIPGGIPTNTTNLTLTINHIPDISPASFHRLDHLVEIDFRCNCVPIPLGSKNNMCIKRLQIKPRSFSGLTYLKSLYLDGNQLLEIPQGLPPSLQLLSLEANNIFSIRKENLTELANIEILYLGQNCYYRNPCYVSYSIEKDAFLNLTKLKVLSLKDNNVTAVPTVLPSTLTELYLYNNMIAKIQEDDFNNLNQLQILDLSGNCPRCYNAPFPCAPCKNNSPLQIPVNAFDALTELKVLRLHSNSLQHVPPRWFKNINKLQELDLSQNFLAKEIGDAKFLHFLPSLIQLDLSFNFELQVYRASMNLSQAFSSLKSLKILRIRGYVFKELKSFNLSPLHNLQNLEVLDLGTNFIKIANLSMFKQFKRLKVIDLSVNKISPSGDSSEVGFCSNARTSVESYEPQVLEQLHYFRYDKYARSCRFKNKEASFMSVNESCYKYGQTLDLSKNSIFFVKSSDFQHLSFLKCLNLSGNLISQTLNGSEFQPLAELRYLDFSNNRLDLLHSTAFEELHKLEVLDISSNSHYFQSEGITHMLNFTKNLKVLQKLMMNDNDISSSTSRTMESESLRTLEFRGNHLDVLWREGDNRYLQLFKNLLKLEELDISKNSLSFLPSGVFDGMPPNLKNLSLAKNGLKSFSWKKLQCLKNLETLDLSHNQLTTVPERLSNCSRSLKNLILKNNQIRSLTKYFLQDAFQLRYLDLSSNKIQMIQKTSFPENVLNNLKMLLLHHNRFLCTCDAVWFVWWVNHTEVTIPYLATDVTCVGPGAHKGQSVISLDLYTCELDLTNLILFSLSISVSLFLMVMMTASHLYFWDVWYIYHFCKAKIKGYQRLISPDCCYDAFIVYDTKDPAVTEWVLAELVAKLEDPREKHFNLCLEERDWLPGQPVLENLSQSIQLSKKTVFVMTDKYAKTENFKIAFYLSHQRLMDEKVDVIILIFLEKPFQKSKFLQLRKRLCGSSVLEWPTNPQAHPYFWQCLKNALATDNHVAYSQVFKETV
Experiment: HEK293-Blue-hTLR-7 cells assay (SEAP reporter, R848 stimulation)
Type: cell-based
Conditions: HEK293-Blue-hTLR7 cells, R848, 20 hrs; read-out: HEK/hTLR7 IC50
Source text: HEK293-Blue-hTLR-7 Cells Assay:
A stable HEK293-Blue-hTLR-7 cell line was purchased from InvivoGen (Cat. #: hkb-ht1r7, San Diego, Calif., USA). These cells were originally designed for studying the stimulation of human TLR7 by monitoring the activation of NF-κB. A SEAP (secreted embryonic alkaline phosphatase) reporter gene was placed under the control of the IFN-β minimal promoter fused to five NF-κB and AP-1-binding sites. The SEAP was induced by activating NF-κB and AP-1 via stimulating HEK-Blue hTLR7 cells with TLR7 ligands. Therefore the reporter expression was declined by TLR7 antagonist under the stimulation of a ligand, such as R848 (Resiquimod), for incubation of 20 hrs. The cell culture supernatant SEAP reporter activity was determined using QUANTI-Blue™ kit (Cat. #: rep-qb1, Invivogen, San Diego, Ca, USA) at a wavelength of 640 nm, a detection medium that turns purple or blue in the presence of alkaline phosphatase.
HEK293-Blue-hTLR7 cells were incubated at a density of […] cells/mL in a volume of 170 μL in a 96-well plate in Dulbecco's Modified Eagle's medium (DMEM) containing 4.5 g/L glucose, 50 U/mL penicillin, […], […], 2 mM L-glutamine, 10% (v/v) heat-inactivated fetal bovine serum with addition of 20 μL test compound in a serial dilution in the presence of final DMSO at 1% and 10 μL of 20 uM R848 in above DMEM, perform incubation under 37° C. in a CO2 incubator for 20 hrs. Then 20 μL of the supernatant from each well was incubated with 180 μL Quanti-blue substrate solution at 37° C. for 2 hrs and the absorbance was read at 620˜655 nm using a spectrophotometer. The signaling pathway that TLR7 activation leads to downstream NF-κB activation has been widely accepted, and therefore similar reporter assay was modified for evaluating TLR7 antagonist.

Q: How did the IC50 turn out when `CO[C@H]1CN(c2nc(C)cc(N3CCN(C[C@H]4CN(c5ccc(C#N)c6nccnc56)C[C@@H](C)O4)CC3)n2)C[C@@H]1N` [Example 106, 8-[(2S,6R)-2-[[4-[2-[(3S,4S)-3-amino-4-methoxy-pyrrolidin-1-yl]-6-methyl-pyrimidin-4-yl]piperazin-1-yl]methyl]-6-methyl-morpholin-4-yl]quinoxaline-5-carbonitrile] was run?
A: 9 nM

Q: For `C[C@@H]1CN(c2ccc(C#N)c3nccnc23)C[C@H](CN2CCN(c3ccnc(N4C[C@H](N)[C@@H](F)C4)n3)CC2)O1` [Example 107, 8-[(2S,6R)-2-[[4-[2-[(3S,4S)-3-amino-4-fluoro-pyrrolidin-1-yl]pyrimidin-4-yl]piperazin-1-yl]methyl]-6-methyl-morpholin-4-yl]quinoxaline-5-carbonitrile], which IC50 is on record?
A: 8 nM

Q: For `C[C@@H]1CN(c2ccc(C#N)c3nccnc23)C[C@H](CN2CCN(c3ccnc(N4C[C@@H](N)[C@@H](F)C4)n3)CC2)O1` [Example 108, 8-[(2S,6R)-2-[[4-[2-[(3R,4S)-3-amino-4-fluoro-pyrrolidin-1-yl]pyrimidin-4-yl]piperazin-1-yl]methyl]-6-methyl-morpholin-4-yl]quinoxaline-5-carbonitrile], which IC50 is on record?
A: 5 nM

Q: `COC1CCN(c2nccc(N3CCN(C[C@H]4CN(c5ccc(C#N)c6ncccc56)C[C@@H](C)O4)CC3)n2)CC1N` (stereo partly drawn) [Example 109, 5-[(2S,6R)-2-[[4-[2-(3-amino-4-methoxy-1-piperidyl)pyrimidin-4-yl]piperazin-1-yl]methyl]-6-methyl-morpholin-4-yl]quinoline-8-carbonitrile] was tested. Which IC50 did it give?
A: 16 nM

Q: How did the IC50 turn out when `C[C@@H]1CN(c2ccc(C#N)c3ncccc23)C[C@H](CN2CCN(c3ccnc(N4C[C@H](N)[C@@H](F)C4)n3)CC2)O1` [Example 110, 5-[(2S,6R)-2-[[4-[2-[(3S,4S)-3-amino-4-fluoro-pyrrolidin-1-yl]pyrimidin-4-yl]piperazin-1-yl]methyl]-6-methyl-morpholin-4-yl]quinoline-8-carbonitrile] was run?
A: 14 nM

Q: How did the IC50 turn out when `C[C@@H]1CN(c2ccc(C#N)c3nccnc23)C[C@H](CN2CCN(c3ccnc(N4CC[C@H](N)[C@H](F)C4)n3)CC2)O1` [Example 111, 8-[(2S,6R)-2-[[4-[2-[(3R,4S)-4-amino-3-fluoro-1-piperidyl]pyrimidin-4-yl]piperazin-1-yl]methyl]-6-methyl-morpholin-4-yl]quinoxaline-5-carbonitrile] was run?
A: 3 nM

Q: With `Cc1cc(N2CCN(C[C@H]3CN(c4ccc(C#N)c5nccnc45)C[C@@H](C)O3)CC2)nc(N2CC(N)C2)n1` [Example 112, 8-[(2S,6R)-2-[[4-[2-(3-aminoazetidin-1-yl)-6-methyl-pyrimidin-4-yl]piperazin-1-yl]methyl]-6-methyl-morpholin-4-yl]quinoxaline-5-carbonitrile] as the compound, how does the IC50 read?
A: 4 nM

Q: For `C[C@@H]1CN(c2ccc(C#N)c3nccnc23)C[C@H](CN2CCN(c3ccnc(N4CC[C@@H](N)[C@H](F)C4)n3)CC2)O1` [Example 113, 8-[(2S,6R)-2-[[4-[2-[(3R,4R)-4-amino-3-fluoro-1-piperidyl]pyrimidin-4-yl]piperazin-1-yl]methyl]-6-methyl-morpholin-4-yl]quinoxaline-5-carbonitrile], which IC50 is on record?
A: 8 nM

Q: With `Cc1cc(N2CCNCC2)nc(N2CCN(C[C@H]3CN(c4ccc(C#N)c5nccnc45)C[C@@H](C)O3)CC2)n1` [Example 114, 8-[(2R,6S)-2-methyl-6-[[4-(4-methyl-6-piperazin-1-yl-pyrimidin-2-yl)piperazin-1-yl]methyl]morpholin-4-yl]quinoxaline-5-carbonitrile] as the compound, how does the IC50 read?
A: 3 nM

Q: How did the IC50 turn out when `Cc1cc(N2C[C@@H](N)[C@@H](F)C2)nc(N2CCN(C[C@H]3CN(c4ccc(C#N)c5nccnc45)C[C@@H](C)O3)CC2)n1` [Example 115, 8-[(2S,6R)-2-[[4-[4-[(3R,4S)-3-amino-4-fluoro-pyrrolidin-1-yl]-6-methyl-pyrimidin-2-yl]piperazin-1-yl]methyl]-6-methyl-morpholin-4-yl]quinoxaline-5-carbonitrile] was run?
A: 4 nM

Q: With `Cc1ccc(N2C[C@H](CN3CCN(c4nccc(N5CCNCC5)n4)CC3)O[C@H](C)C2)c2nccnc12` [Example 116, (2R,6S)-2-methyl-4-(8-methylquinoxalin-5-yl)-6-[[4-(4-piperazin-1-ylpyrimidin-2-yl)piperazin-1-yl]methyl]morpholine] as the compound, how does the IC50 read?
A: 21 nM

Q: With `Cc1ccc(N2C[C@H](CN3CCN(c4ccnc(N5CCNCC5)n4)CC3)O[C@H](C)C2)c2nccnc12` [Example 117, (2R,6S)-2-methyl-4-(8-methylquinoxalin-5-yl)-6-[[4-(2-piperazin-1-ylpyrimidin-4-yl)piperazin-1-yl]methyl]morpholine] as the compound, how does the IC50 read?
A: 13 nM

Q: Which IC50 does the source give for `C[C@@H]1CN(c2ccc(C#N)c3nccnc23)C[C@H](CN2CCN(c3nccc(N4CC(N)C4)n3)CC2)O1` [Example 118, 8-[(2S,6R)-2-[[4-[4-(3-aminoazetidin-1-yl)pyrimidin-2-yl]piperazin-1-yl]methyl]-6-methyl-morpholin-4-yl]quinoxaline-5-carbonitrile] here?
A: 4 nM

Q: With `C[C@@H]1CN(c2ccc(C#N)c3nccnc23)C[C@H](CN2CCN(c3nccc(N4C[C@@H](N)[C@H](F)C4)n3)CC2)O1` [Example 119, 8-[(2S,6R)-2-[[4-[4-[(3R,4R)-3-amino-4-fluoro-pyrrolidin-1-yl]pyrimidin-2-yl]piperazin-1-yl]methyl]-6-methyl-morpholin-4-yl]quinoxaline-5-carbonitrile] as the compound, how does the IC50 read?
A: 16 nM

Q: With `CO[C@@H]1CN(c2cc(C)nc(N3CCN(C[C@H]4CN(c5ccc(C#N)c6nccnc56)C[C@@H](C)O4)CC3)n2)C[C@@H]1N` [Example 120, 8-[(2S,6R)-2-[[4-[4-[(3S,4R)-3-amino-4-methoxy-pyrrolidin-1-yl]-6-methyl-pyrimidin-2-yl]piperazin-1-yl]methyl]-6-methyl-morpholin-4-yl]quinoxaline-5-carbonitrile] as the compound, how does the IC50 read?
A: 5 nM

Q: Which IC50 does the source give for `CO[C@@H]1CN(c2cc(C)nc(N3CCN(C[C@H]4CN(c5ccc(C#N)c6nccnc56)C[C@@H](C)O4)CC3)n2)C[C@H]1N` [Example 121, 8-[(2S,6R)-2-[[4-[4-[(3R,4R)-3-amino-4-methoxy-pyrrolidin-1-yl]-6-methyl-pyrimidin-2-yl]piperazin-1-yl]methyl]-6-methyl-morpholin-4-yl]quinoxaline-5-carbonitrile] here?
A: 8 nM

Q: Which IC50 does the source give for `CO[C@H]1CN(c2cc(C)nc(N3CCN(C[C@H]4CN(c5ccc(C#N)c6nccnc56)C[C@@H](C)O4)CC3)n2)C[C@H]1N` [Example 122, 8-[(2S,6R)-2-[[4-[4-[(3R,4S)-3-amino-4-methoxy-pyrrolidin-1-yl]-6-methyl-pyrimidin-2-yl]piperazin-1-yl]methyl]-6-methyl-morpholin-4-yl]quinoxaline-5-carbonitrile] here?
A: 5 nM

Q: With `Cc1cc(N2CC(N)C2)nc(N2CCN(C[C@H]3CN(c4ccc(C#N)c5nccnc45)C[C@@H](C)O3)CC2)n1` [Example 123, 8-[(2S,6R)-2-[[4-[4-(3-aminoazetidin-1-yl)-6-methyl-pyrimidin-2-yl]piperazin-1-yl]methyl]-6-methyl-morpholin-4-yl]quinoxaline-5-carbonitrile] as the compound, how does the IC50 read?
A: 3 nM

From patent publication US20210395239A1 (Hoffmann-La Roche Inc., priority 2018, published 2021)
